US20120028897A1, “METHODS AND COMPOSITIONS FOR THE TREATMENT OF FLUID RETENTION DISORDERS” (priority 2008, published 2012)
Where two headings read alike, the source gives them in different places. Bridges are numbered along the chain shown (N, C = ends). Where no end group is shown, it is not given here.

Columns and labels:
[1] = 37° C., cited from earlier work
[2] = biological target: guanylate cyclase C (GC-C) receptor (UniProt P25092 24-1073, limits assumed); experiment: cell-based or functional assay
guanylate cyclase C (GC-C) receptor, sequence (P25092 24-1073 limits assumed): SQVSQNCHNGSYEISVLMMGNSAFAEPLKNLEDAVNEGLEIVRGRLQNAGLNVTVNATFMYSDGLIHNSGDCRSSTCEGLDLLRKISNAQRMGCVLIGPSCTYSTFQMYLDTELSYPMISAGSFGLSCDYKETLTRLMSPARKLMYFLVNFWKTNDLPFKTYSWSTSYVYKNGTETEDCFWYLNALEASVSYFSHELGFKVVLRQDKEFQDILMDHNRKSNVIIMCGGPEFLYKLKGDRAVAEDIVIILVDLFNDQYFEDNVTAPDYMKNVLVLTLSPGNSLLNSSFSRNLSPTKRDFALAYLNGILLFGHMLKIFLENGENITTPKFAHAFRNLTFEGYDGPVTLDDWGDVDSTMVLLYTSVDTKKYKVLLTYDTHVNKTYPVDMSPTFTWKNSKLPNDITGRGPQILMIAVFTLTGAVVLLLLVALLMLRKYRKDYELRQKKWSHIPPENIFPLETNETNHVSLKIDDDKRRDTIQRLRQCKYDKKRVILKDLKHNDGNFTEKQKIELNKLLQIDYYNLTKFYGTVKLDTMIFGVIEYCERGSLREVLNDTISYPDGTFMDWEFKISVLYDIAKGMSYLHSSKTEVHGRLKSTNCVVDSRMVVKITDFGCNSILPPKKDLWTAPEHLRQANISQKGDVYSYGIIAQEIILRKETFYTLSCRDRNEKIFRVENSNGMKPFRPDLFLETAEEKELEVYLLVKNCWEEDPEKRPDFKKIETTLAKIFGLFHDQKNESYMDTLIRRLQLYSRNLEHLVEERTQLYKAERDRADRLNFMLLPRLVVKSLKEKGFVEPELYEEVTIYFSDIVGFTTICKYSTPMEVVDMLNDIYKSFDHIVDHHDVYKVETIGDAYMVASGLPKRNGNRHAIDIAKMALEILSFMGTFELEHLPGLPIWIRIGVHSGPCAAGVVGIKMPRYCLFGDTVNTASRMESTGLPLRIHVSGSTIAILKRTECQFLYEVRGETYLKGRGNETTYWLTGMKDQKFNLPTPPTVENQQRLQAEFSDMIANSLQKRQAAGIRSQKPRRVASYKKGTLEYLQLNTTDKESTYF

Row | Molecule | half life of each stereoisomer (A/B interconversion) [1] | half life of each stereoisomer (A/B interconversion) ([1]; listed as human Ugn) | cyclic GMP synthesis in T84 cells, potency against huUgnA [2]
1 | CC(C)C[C@H](NC(=O)[C@@H]1CSSC[C@@H]2NC(=O)[C@H](CC(C)C)NC(=O)[C@H](CCC(=O)O)NC(=O)[C@@H](NC(=O)[C@H](CC(=O)O)NC(=O)[C@H](CC(=O)O)NC(=O)[C@@H](N)CC(N)=O)CSSC[C@H](NC(=O)[C@H](C)NC(=O)[C@H](C(C)C)NC(=O)[C@H](CC(N)=O)NC(=O)[C@H](C(C)C)NC2=O)C(=O)N[C@@H]([C@@H](C)O)C(=O)NCC(=O)N1)C(=O)O [huUgn, Asn Asp Asp Cys Glu Leu Cys Val Asn Val Ala Cys Thr Gly Cys Leu] | approximately 2 days | about 2 days | 
2 | NDDCELCVNVACTGCL (disulfide 4-12, 7-15) [Human UgnB (B isoform of human uroguanylin)] |  |  | > 100 fold less potent than huUgnA
